Test results taken from article PMC12472621, “Excavating Precursors from Herb Pairs Polygala tenuifolia and Acori tatarinowii: Synthesis and Anticonvulsant Activity Evaluation of 3,4,5-Trimethoxycinnamic Acid (TMCA) Piperazine Amide Derivatives” (Pharmaceuticals, 2025).
Like-named read-outs stand apart in the source and are kept apart here.

What was measured:
[1] = test system: maximal electroshock (MES) induced seizures; assay: Maximal electroshock (MES) test; format: in vivo, mice; settings: Mus musculus, ip
Source text: (§1) Male Kunming mice (23–28 g) were maintained under controlled conditions with ad libitum access to standard pellet diet and water. Test compounds were formulated immediately prior to administration in normal saline containing 0.5% Tween-80. Our experiment was authorized by the Institutional Animal Care and Use Committee of Shaanxi University of Chinese Medicine (animal ethics certificate number: SUCMDL20210309027).
The MES test carried out following the method of Swinyard. A 60 Hz current (50 mA; 0.25 s duration) was delivered via corneal electrodes using a YSD-4G electro convulsion meter (Zhenghua Instruments, Huaibei, China, SN: ZH0056232). […] Test compounds were suspended in an identical vehicle. Protection was defined as abolition of tonic hindlimb extension.

[2] = test system: scPTZ-induced seizures; assay: Pentylenetetrazole (PTZ)-induced seizure test (scPTZ); format: in vivo; settings: 100 mg/kg i.p., PTZ 85 mg/kg s.c., mice
Procedure: as §1
Seizures were induced by subcutaneous (s.c.) administration of PTZ (85 mg/kg in 1% v/v Tween-80/0.9% NaCl), 30 min after compound treatment. This dose produces clonic seizures (≥5 s duration) in 97% of naive mice. Latency to seizure onset was recorded during continuous observation.

[3] = Acute neurotoxicity screening (rotarod test); format: in vivo, mice; settings: male, Kunming, mouse, in vivo, ip, 30 min post-administration, 95% confidence intervals in parentheses
Procedure: as §1
(§2) Neurotoxicity was assessed via a rotarod test. Mice were trained to maintain balance on a rotating rod (diameter: 4 cm; 24 rpm). Trained animals received i.p. injections of test compounds or reference drugs. At 30 min post-administration, neurologic impairment was defined as failure to remain on the rod for 3 min (≥3 falls within the testing period). Data were used to calculate TD50 values.

[4] = test system: mice; assay: Acute neurotoxicity screening (rotarod test); format: in vivo; settings: i.p., 30 min post-administration, 95% confidence intervals in parentheses
Procedure: as §1, §2

[5] = test system: LDH enzyme; assay: In vitro LDH assay; format: biochemical
Procedure: Employing the commercial LDH enzyme (Solarbio Life Science, Beijing, China, CAS:9001-60-9, Lot. Document No. 14240222001) includes a colorimetric assay kit designed to assess the synthesized substances’ capacity to suppress the LDH enzyme, using established techniques with slight alterations. In summary, a 96-well microplate was filled with 30 μL of LDH enzyme (300 U/mL) and 70 μL of the inhibitor mixture (0.1 mM in final concentration). Following a 10 min pre-incubation process at ambient temperature, […] of NADH (0.2 mM) was introduced. Subsequently, each well received 40 μL of phosphate buffer (20 mM, pH 6.8), reaching a total volume of 250 μL, followed by a 10 min incubation of the assay plate at 28 °C. Subsequently, […] absorbance was gauged at 340 nm utilizing a SpectraMax 190 Absorbance Microplate Reader (Molecular Devices, San Jose, CA, USA). […] In the initial screening, the level of suppression by the test substances was denoted as a percentage (%). The calculation for the LDH inhibition ratio was as follows:Inhibition (%) = [(Asample − Ablank)/Acontrol] × 100%
Asample denotes the OD340 absorbance of test compound and Ablank is the OD340 absorbance for the blank. Acontrol represents the OD340 absorbance of control.

[6] = test system: LDH; settings: original ligand of the LDH co-crystal complex; cited from earlier work
[7] = test system: neurons in CA1 and CA3 regions of the hippocampus; assay: Silver staining of hippocampal tissue; format: in vivo; settings: PTZ model mice, compared with PTZ group
Procedure: Following the creation of the PTZ model, a modified version of the silver impregnation staining technique was applied for silver staining, enabling the observation of changes in neuronal fibers and synapses throughout diseases. Brain tissue slices from each mouse, encased in paraffin, underwent deparaffinization using xylene and absolute ethanol, followed by a treatment in acidic formaldehyde, and then incubation in a glycine–silver mixture. Following the application of a reducing solution for staining, the samples were analyzed using an optical microscope. Against a yellow backdrop, nerve cells’ axons, dendrites, collagen fibers, and neurofibrillary tangles were colored in dark brown or black.

[8] = test system: LDH; assay: Immunofluorescence staining for LDH in hippocampus; format: in vivo; settings: hippocampus CA1, PTZ model mice
Procedure: Brain samples were extracted, preserved in 4% paraformaldehyde for a day, and subsequently immersed in a 30% sucrose solution to dehydrate. Post OCT embedding, slices of brain tissue measuring 16 μm in thickness were sliced using a cryostat. Following the permeabilization using 0.5% TritonX-100 and subsequent blocking with 10% goat serum at ambient temperature to remove nonspecific staining, the tissue samples were subjected to overnight incubation at 4 °C with the primary antibody, LDHA (Proteintech (Rosemont, IL, USA), Cat No. 19987-1-AP, Lot: 00106920, rabbit anti-rat 1:200). On the next day, the slides underwent incubation using a secondary antibody. The slides underwent counterstaining using DAPI. […] slices were examined and visualized utilizing the VS200-BU Slide Scanner (Olympus Corporation, Tokyo, Japan).

[9] = test system: scPTZ-induced seizures; design: method as in PMID 31539780; settings: reference drug; cited from earlier work
[10] = test system: mice; design: method as in PMID 31539780; settings: reference drug; cited from earlier work

| SMILES | responders at 100 mg/kg ([1]; 100 mg/kg i.p., mice, 0.5 h, read-out: MES model, protected mice/total mice, 0.5 h (converted)) | responders at 100 mg/kg ([1]; 100 mg/kg i.p., mice, 1 h, read-out: MES model, protected mice/total mice, 1 h (converted)) | responders at 100 mg/kg ([1]; 100 mg/kg i.p., mice, 2 h, read-out: MES model, protected mice/total mice, 2 h (converted)) | responders at 100 mg/kg ([1]; 100 mg/kg i.p., mice, 3 h, read-out: MES model, protected mice/total mice, 3 h (converted)) | ED50 ([1]; mice, 95% confidence intervals in parentheses) | SCPTZ Latent Time (100 mg/kg, s) [2] | SCPTZ Protective Ratio (100 mg/kg) [2] | TD50 at 30 min [3] | TD50 [4] | LDH Inhibition Ratio (0.1 mM) [5] | IC50 [6] | responders at 100 mg/kg ([1]; 0.5 h, read-out: MES model, protected mice/total mice, 0.5 h) | responders at 100 mg/kg ([1]; 1 h, read-out: MES model, protected mice/total mice, 1 h) | responders at 100 mg/kg ([1]; 2 h, read-out: MES model, protected mice/total mice, 2 h) | responders at 100 mg/kg ([1]; 3 h, read-out: MES model, protected mice/total mice, 3 h) | silver staining, neurons in hippocampal CA1 and CA3 [7] | LDH immunolabelling intensity [8] | SCPTZ Latent Time (100 mg/kg, s) [9] | SCPTZ Protective Ratio (100 mg/kg) [9] | TD50 [10] |
| --- | --- | --- | --- | --- | --- | --- | --- | --- | --- | --- | --- | --- | --- | --- | --- | --- | --- | --- | --- | --- |
| C/C=C/c1ccc(OC(=O)CCCN2CCN(C(=O)/C=C/c3cc(OC)c(OC)c(OC)c3)CC2)c(OC)c1 [A3, methoxy-4-((E)-prop-1-en-1-yl)phenyl 4-(4-((E)-3-(3,4,5-trimethoxyphenyl)acryloyl)piperazin-1-yl)butanoate] | 100% | 75% | 50% | 25% | 73.3 mg/kg | 222.0 ± 14.7 s | 1/4 | 443 mg/kg | weak neurotoxicity | 37.6 ± 8.1% |  |  |  |  |  |  |  |  |  |  |
| O=C1N[C@](c2ccc(N3CCOCC3)cc2)(c2ccsc2)CC(O)=C1Sc1ccccc1Cl [GEN-140] |  |  |  |  |  |  |  |  |  |  | 3 nM |  |  |  |  |  |  |  |  |  |
| CC(C)(C)C(O)/C=C/c1ccc2c(c1)OCO2 (stereo not drawn) [STP, Stiripentol, reference compound] |  |  |  |  |  |  |  |  |  | 46.1 ± 6.2% |  | 100% | 50% | 25% | 0% | alleviated symptoms | lower than the values found in the PTZ group | 269.5 ± 19.8 s | 2/4 | 161.7 (146.2–256.2) mg/kg |
